Literature values as cited in patent publication US8618022B2, “Process for preparing an aqueous suspension of an organic pesticide compound” (priority 2009, dated 2013).
Converted amounts (≈) assume the structure as drawn.

Conditions: at 20° C.

| Structure (SMILES) | solubility in water |
| --- | --- |
| COC(=O)N(OC)c1ccccc1COc1ccn(-c2ccc(Cl)cc2)n1 [pyraclostrobin, methyl {2-[1-(4-chlorophenyl)pyrazol-3-yloxymethyl]phenyl}-(methoxy)carbamate] | < 2 µg/mL |

Same assay, conditions: deionised water at 20° C.

| Structure (SMILES) | water solubility |
| --- | --- |
| CCOP(=S)(OCC)ON=C(C#N)c1ccccc1Cl [chlorphoxim] | 2 mg/L (≈ 6.01 µM) |
| CCOP(=S)(OCC)Oc1nc(Cl)c(Cl)cc1Cl [chlorpyriphos] | 2 mg/L (≈ 5.7 µM) |
| ClC1=C(Cl)C2(Cl)C3C4C=CC(C4)C3C1(Cl)C2(Cl)Cl (stereo not shown) [aldrin] | <<1 mg/l |
| CC(C)OC(=O)c1cc(C(=O)OC(C)C)cc([N+](=O)[O-])c1 [nitrothal-isopropyl] | 0.4 mg/L (≈ 1.35 µM) |
| CO/C=C(/C(=O)OC)c1ccccc1COc1cccc(C(F)(F)F)n1 [picoxystrobin] | 3.1 mg/L (≈ 8.44 µM) |
| O=C(Nc1ccc(F)cc1)c1cccc(Oc2cccc(C(F)(F)F)c2)n1 [picolinafen] | <0.1 mg/L |
| CC1(C)CCC(Cc2ccc(Cl)cc2)C1(O)Cn1cncn1 (stereo not shown) [metconazol] | 1400 mg/L (≈ 4380 µM) |
| Cc1c(COC(=O)[C@@H]2[C@H](/C=C(\Cl)C(F)(F)F)C2(C)C)cccc1-c1ccccc1 (racemic) [bifenthrin] | 0.1 mg/L (≈ 0.236 µM) |
| COP(=S)(OC)SCN1C(=O)c2ccccc2C1=O [phosmet] | 25 mg/L (≈ 78.8 µM) |
| CCCCN(CC)c1c([N+](=O)[O-])cc(C(F)(F)F)cc1[N+](=O)[O-] [benfluralin] | <1 mg/L |
| COP(=S)(OC)Oc1cc(Cl)c(Br)cc1Cl [bromophos] | 40 mg/L (≈ 109 µM) |
| CC(C)OC(=O)C(O)(c1ccc(Br)cc1)c1ccc(Br)cc1 [bromopropylate] | <5 mg/L |
